Consider four compounds from patent US20260374739A1, “SMALL MOLECULAR WEIGHT CHEMICAL COMPOUND TO ANTAGONIZE EPH-EPHRIN TETRAMERIZATION AND INHIBIT BIDIRECTIONAL SIGNALING” (THE BOARD OF REGENTS OF THE UNIVERSITY OF TEXAS SYSTEM, priority 2022, published 2026).

For assay [1], the target named is T1, EphrinB2-EphB2 (Homo sapiens, UniProt P29323).
T1 construct: soluble human EphB1-His, EphB2-His, and EphB4-His ectodomains; commercially available human EphrinB1-Fc (EB1), EphrinB2-Fc (EB2), and EphrinB3-Fc (EB3) ectodomain proteins; purchased
T1 sequence (P29323 19-543 limits assumed): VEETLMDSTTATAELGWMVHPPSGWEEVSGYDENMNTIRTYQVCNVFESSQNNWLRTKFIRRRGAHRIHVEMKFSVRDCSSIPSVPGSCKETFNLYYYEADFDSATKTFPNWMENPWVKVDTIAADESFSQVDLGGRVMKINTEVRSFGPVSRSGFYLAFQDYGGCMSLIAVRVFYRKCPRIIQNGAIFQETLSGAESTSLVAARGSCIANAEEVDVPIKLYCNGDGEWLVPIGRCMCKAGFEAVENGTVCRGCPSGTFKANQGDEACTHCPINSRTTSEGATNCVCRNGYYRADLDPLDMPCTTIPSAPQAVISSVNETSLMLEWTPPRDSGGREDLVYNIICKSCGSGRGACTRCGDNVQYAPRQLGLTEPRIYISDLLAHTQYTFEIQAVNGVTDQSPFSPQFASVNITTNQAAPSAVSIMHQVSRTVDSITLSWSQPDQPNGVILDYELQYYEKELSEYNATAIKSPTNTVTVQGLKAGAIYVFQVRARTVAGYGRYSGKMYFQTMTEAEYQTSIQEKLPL
Nature of the assay: Octet tetramerization inhibition, immobilized human EphrinB2 binding to 50 nM soluble human EphB2. Conditions: for IC50: EphrinB2-EphB2. A general note: In BLI a coated tip is dipped into the sample, and binding shifts an interference pattern.

Another assay concerns the target T2, EphrinB2-EphB1 (Homo sapiens, UniProt P54762).
T2 construct: soluble human EphB1-His, EphB2-His, and EphB4-His ectodomains; commercially available human EphrinB1-Fc (EB1), EphrinB2-Fc (EB2), and EphrinB3-Fc (EB3) ectodomain proteins; purchased
T2 sequence (P54762 18-540 limits assumed): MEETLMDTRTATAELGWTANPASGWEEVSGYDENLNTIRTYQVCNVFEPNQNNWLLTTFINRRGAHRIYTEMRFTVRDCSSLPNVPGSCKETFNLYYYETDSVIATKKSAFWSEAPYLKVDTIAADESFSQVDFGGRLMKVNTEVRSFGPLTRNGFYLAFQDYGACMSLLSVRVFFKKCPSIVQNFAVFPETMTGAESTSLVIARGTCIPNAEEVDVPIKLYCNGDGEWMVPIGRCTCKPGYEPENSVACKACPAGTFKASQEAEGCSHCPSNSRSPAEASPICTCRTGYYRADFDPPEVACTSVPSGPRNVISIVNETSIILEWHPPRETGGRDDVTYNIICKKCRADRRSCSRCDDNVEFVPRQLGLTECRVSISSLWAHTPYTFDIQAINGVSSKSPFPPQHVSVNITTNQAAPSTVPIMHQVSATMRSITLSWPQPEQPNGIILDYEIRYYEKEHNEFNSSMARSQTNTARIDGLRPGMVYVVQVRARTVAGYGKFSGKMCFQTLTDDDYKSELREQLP
The experiment in a line: Octet 80 sec association/500 sec dissociation, immobilized human EphrinB2-Fc binding to soluble human EphB1-His. As to conditions: immobilized human EphrinB2, 25 nM soluble human EphB1; for EphB1 Inhibition Percent, Inhibition of Association ONLY: at 3.2 μM and 80 seconds; for EphB1 Inhibition Percent, Inhibition of Association-Dissociation: at 3.2 μM and 580 seconds. A digest of the protocol: (§1)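 EphrinB2-Fc captured on AHC biosensors, then soluble His-tagged EphB ectodomain (25 nM for % inhibition runs) associated 80 s and dissociated 500 s in PBS, 0.05% Tween-20, 1% DMSO ± compound. Compounds tested at 0.1–3.2 μM with a 10 μM max standard; IC50 from AUC of full traces or at 75 s and 135 s.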

Assay [2] addresses T1, EphrinB2-EphB2. The experiment in a line: Octet 80 sec association/500 sec dissociation, immobilized human EphrinB2-Fc binding to soluble human EphB2-His. As to conditions: immobilized human EphrinB2, 25 nM soluble human EphB2; for EphB2 Inhibition Percent, Inhibition of Association ONLY: at 3.2 μM and 80 seconds; for EphB2 Inhibition Percent, Inhibition of Association-Dissociation: at 3.2 μM and 580 seconds. A digest of the protocol:
as §1

The target of a further assay is T3, EphrinB2-EphB4 (Homo sapiens, UniProt P54760).
T3 construct: soluble human EphB1-His, EphB2-His, and EphB4-His ectodomains; commercially available human EphrinB1-Fc (EB1), EphrinB2-Fc (EB2), and EphrinB3-Fc (EB3) ectodomain proteins; purchased
T3 sequence (P54760 16-539 limits assumed): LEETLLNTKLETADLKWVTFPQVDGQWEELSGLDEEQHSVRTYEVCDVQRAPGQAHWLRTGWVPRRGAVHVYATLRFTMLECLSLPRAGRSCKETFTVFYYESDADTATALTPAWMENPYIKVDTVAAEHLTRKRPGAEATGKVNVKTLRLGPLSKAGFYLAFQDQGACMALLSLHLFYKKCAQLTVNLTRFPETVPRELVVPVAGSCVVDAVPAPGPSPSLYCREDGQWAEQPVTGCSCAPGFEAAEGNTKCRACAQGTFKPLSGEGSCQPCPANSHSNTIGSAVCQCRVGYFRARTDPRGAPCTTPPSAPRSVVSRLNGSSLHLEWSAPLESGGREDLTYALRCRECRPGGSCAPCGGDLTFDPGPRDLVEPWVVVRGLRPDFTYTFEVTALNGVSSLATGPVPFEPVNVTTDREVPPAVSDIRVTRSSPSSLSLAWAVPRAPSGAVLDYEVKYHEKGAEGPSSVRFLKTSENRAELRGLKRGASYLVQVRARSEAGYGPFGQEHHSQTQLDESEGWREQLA
Nature of the assay: Octet 80 sec association/500 sec dissociation, immobilized human EphrinB2-Fc binding to soluble human EphB4-His. Conditions: immobilized human EphrinB2, 25 nM soluble human EphB4; for EphB4 Inhibition Percent, Inhibition of Association ONLY: at 3.2 μM and 80 seconds; for EphB4 Inhibition Percent, Inhibition of Association-Dissociation: at 3.2 μM and 580 seconds. A digest of the protocol: as §1

In a further assay the target is T4, EphB1-EphrinB2 (EB2) (Rattus norvegicus, UniProt P09759).
T4 construct: rat EphB1-Fc residues 18-538; mouse EB2-His residues 18-232; purchased R&D Systems (EphB1-Fc); Sino Biologicals (EB2-His)
T4 sequence (P09759 18-538): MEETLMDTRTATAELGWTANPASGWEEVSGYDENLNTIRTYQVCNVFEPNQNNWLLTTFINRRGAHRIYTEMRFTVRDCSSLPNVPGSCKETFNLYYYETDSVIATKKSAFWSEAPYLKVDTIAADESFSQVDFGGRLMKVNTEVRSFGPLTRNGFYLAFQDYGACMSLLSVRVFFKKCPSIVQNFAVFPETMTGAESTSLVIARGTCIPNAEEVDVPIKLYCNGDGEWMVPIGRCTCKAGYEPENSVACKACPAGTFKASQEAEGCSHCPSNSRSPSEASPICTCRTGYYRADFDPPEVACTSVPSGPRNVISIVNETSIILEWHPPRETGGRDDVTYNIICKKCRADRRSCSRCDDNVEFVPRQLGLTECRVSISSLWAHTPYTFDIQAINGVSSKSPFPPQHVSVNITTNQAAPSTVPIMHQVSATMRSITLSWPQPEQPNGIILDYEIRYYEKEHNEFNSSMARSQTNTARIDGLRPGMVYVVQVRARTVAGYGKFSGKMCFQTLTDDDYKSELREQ
Nature of the assay: Alpha assay EphB1-EphrinB2 (EB2) interaction. Type of assay: binding, mouse EB2. From the text:
A chemiluminescent AlphaScreen™ bead-based proximity assay suitable for HTS was developed to measure the receptor-ligand interaction formed between EphB1 and EphrinB2 (EB2) ectodomains (FIG. 3). Here, when singlet oxygen molecules generated by high energy irradiation of donor beads travel over a constrained distance to excite acceptor beads, a chemiluminescent signal is generated and detected. If an analyte interferes with the EphB1-EB2 protein-protein interaction, close proximity of the donor and acceptor beads will be disrupted resulting in diminished or lost energy transfer and reduced acceptor bead emission.
Test was conducted in the Alpha assay, to see if purified soluble Reelin (previously shown to bind EphB1 ectodomain) can interfere with EphB1-EB2 binding.
The EphB1-EB2 screen was conducted using 0.8 nM of each protein, 50 ng beads per well, and assessed at 5 μM a library of −240,000 small, drug-like chemicals. […] They were also tested in a counter screen designed to identify non-specific compounds. Here, a single-protein Alpha assay was set up using a dual-tagged EphB2-His-Fc ectodomain protein that can bind both donor and acceptor beads to bring them into proximity. If a selected compound simply absorbs the chemiluminescent signal or interferes with bead function/binding or protein folding, it was hypothesized that it would also reduce signals in the single protein assay, and would consider it a false positive.

Where [3] appears, read: Absolute Association IC50 (300 sec), Table A.
[4] abbreviates: Absolute Dissociation IC50 (450 sec), Table A.

Marks after values point to notes of the source that are not given here.

As a reminder, the IC50 is the concentration needed to halve the response being measured. As to `COc1ccc(N2CCN(Cc3ccc(O)c4ncccc34)CC2)cc1` [Compound 72, 5-((4-(4-methoxyphenyl)piperazin-1-yl)methyl)quinolin-8-ol], the “tetramerization inhibitor activity” value at EphrinB2-EphB2 [1] is recorded as “exhibit strong IC50 values”. In addition, the “disruption of unsurmountable tetramer” value at EphrinB2-EphB2 [1] (0.8-3.2 μM) is listed as “ability to disrupt some of the unsurmountable tetramer”. The 50% inhibitory concentration (IC50) at EphrinB2-EphB2 [1] (Absolute AUC/IC50, Table A) was found to be 2290 nM; at EphrinB2-EphB2 [1] (setting [3]), 2510 nM; at EphrinB2-EphB2 [1] (setting [4]) it was 1510 nM; on EphrinB2-EphB2 [1] (Relative Association IC50 (300 sec), Table A), 1200 nM; at EphrinB2-EphB2 [1] (Relative Dissociation IC50 (450 sec), Table A), 1070 nM. For the same compound, the “EphB1 Inhibition Percent, Inhibition of Association ONLY” value at EphrinB2-EphB1 is 30.0%. Moreover, the “EphB1 Inhibition Percent, Inhibition of Association-Dissociation” value at EphrinB2-EphB1 is given as 44.5%. Moreover, on EphrinB2-EphB2 [2], the “EphB2 Inhibition Percent, Inhibition of Association ONLY” value came to 39.4%. The “EphB2 Inhibition Percent, Inhibition of Association-Dissociation” value on EphrinB2-EphB2 [2] is listed as 60.2%. Also, on EphrinB2-EphB4, the “EphB4 Inhibition Percent, Inhibition of Association ONLY” value was 19.8%. Besides, the “EphB4 Inhibition Percent, Inhibition of Association-Dissociation” value on EphrinB2-EphB4 was 33.2%.
In the case of `COc1ccc(N2CCN(Cc3cc(I)c(O)c4ncccc34)CC2)cc1` [Compound 74, 7-iodo-5-((4-(4-methoxyphenyl)piperazin-1-yl)methyl)quinolin-8-ol], the “tetramerization inhibitor activity” value on EphrinB2-EphB2 [1] is on record as “exhibit strong IC50 values”. Also, the IC50 at EphrinB2-EphB2 [1] (Absolute AUC/IC50, Table A) was determined as 400 nM. On EphrinB2-EphB2 [1] (setting [3]), the IC50 is 560 nM. This compound had an IC50 at EphrinB2-EphB2 [1] (setting [4]) of 420 nM. For the same compound, on EphrinB2-EphB1, the “EphB1 Inhibition Percent, Inhibition of Association ONLY” value came out at 47.2% and the “EphB1 Inhibition Percent, Inhibition of Association-Dissociation” value came out at 58.2%. Besides, on EphrinB2-EphB2 [2], the “EphB2 Inhibition Percent, Inhibition of Association ONLY” value came out at 50.6% and the “EphB2 Inhibition Percent, Inhibition of Association-Dissociation” value was 70.0%. Moreover, at EphrinB2-EphB4, the “EphB4 Inhibition Percent, Inhibition of Association ONLY” value stood at 21.0% and the “EphB4 Inhibition Percent, Inhibition of Association-Dissociation” value was found to be 43.4%.
On to `Oc1ccc(CN2CCN(c3ccc(C(F)(F)F)cc3)CC2)c2cccnc12` [Compound 103, 5-((4-(4-(trifluoromethyl)phenyl)piperazin-1-yl)methyl)quinolin-8-ol], for which the “tetramerization inhibitor activity” value on EphrinB2-EphB2 [1] was “eliminated the activity”. For the same compound, at EphrinB2-EphB1, the “EphB1 Inhibition Percent, Inhibition of Association ONLY” value is listed as 16.3% and the “EphB1 Inhibition Percent, Inhibition of Association-Dissociation” value was found to be 33.8%. Also, at EphrinB2-EphB2 [2], the “EphB2 Inhibition Percent, Inhibition of Association ONLY” value was 10.5% and the “EphB2 Inhibition Percent, Inhibition of Association-Dissociation” value is 27.6%. For the same compound, on EphrinB2-EphB4, the “EphB4 Inhibition Percent, Inhibition of Association ONLY” value is on record as 0*% and the “EphB4 Inhibition Percent, Inhibition of Association-Dissociation” value came to 11.4%.
“Reelin: purified soluble Reelin (previously shown to bind EphB1 ectodomain)”: the “antagonism of EphB1-EB2” value in the assay with EphB1-EphrinB2 (EB2) is “almost complete inhibition at 200 nM”.
